Data reported in ChEMBL document CHEMBL1201862, “PubChem BioAssay data set” (2004).
Activity calls are given as the source filed them.

How the values were obtained:
HeLa = experiment: HeLa cell cytotoxicity, dose response, cytotoxicity control for MITF activator project, CellTiter-Glo luminescence, cherry-pick samples (AID 540259); format: functional, cell-based; conditions: Homo sapiens
[1] = target: T1, Zinc finger protein mex-5 (Caenorhabditis elegans, UniProt Q9XUB2); experiment: MEX-5/TCR-2 RNA interaction inhibitors, dose response, biochemical, C. elegans, fluorescence polarization (AID 1960)
T1 sequence (Q9XUB2 whole entry): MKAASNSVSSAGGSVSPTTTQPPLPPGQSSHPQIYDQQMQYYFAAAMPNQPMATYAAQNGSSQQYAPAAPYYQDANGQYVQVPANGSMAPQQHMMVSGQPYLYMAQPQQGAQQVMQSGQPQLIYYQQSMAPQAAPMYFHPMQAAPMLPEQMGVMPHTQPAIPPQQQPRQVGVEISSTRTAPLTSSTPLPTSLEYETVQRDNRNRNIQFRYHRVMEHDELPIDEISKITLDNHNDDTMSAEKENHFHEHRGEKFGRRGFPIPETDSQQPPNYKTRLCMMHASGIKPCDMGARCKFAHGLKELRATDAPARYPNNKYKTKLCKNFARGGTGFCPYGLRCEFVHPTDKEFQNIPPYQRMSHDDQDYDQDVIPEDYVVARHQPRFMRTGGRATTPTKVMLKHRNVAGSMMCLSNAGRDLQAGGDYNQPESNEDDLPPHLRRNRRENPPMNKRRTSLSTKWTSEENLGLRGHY

Streptococcus = experiment: Group A Streptococcus viability loss, dose response, counter-screen for streptokinase expression inhibitor project, luminescence, BacTiterGlo (AID 1915); format: functional, organism-based;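 note: potency for reduction of bacterial viability or growth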
[2] = target: T2, RNA-binding protein pos-1 (Caenorhabditis elegans, UniProt G5EF15); experiment: inhibitors of POS-1/mex-3 RNA binding, dose response, biochemical, fluorescence polarization (AID 1964);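 note: purified POS-1 fused to maltose binding protein made in E. coli; potency of compounds blocking POS-1 binding to fluorescent RNA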
T2 sequence (G5EF15 whole entry): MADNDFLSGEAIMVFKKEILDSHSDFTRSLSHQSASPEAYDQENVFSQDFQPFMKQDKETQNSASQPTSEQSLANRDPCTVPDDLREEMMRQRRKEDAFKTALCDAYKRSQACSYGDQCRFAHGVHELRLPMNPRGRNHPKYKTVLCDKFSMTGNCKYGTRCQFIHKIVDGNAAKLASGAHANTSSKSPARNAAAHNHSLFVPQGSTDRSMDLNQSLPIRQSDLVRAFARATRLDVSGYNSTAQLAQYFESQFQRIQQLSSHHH

[3] = test system: Streptococcus sp. 'group A'; experiment: growth inhibition of control SK(-) GAS strain, dose response, counter-screen for streptokinase expression inhibitor project, luminescence, kanamycin, BacTiterGlo, confirmation (AID 1900); format: functional, organism-based
[4] = control 3'UTR Renilla luciferase suppression, dose response, counter-screen for Shn3 inhibitor project, cell-based, Clone20-Shn3RL, cherry-picked (AID 624133); format: functional
HEK293 [5] = experiment: cells; format: functional, cell-based; conditions: Homo sapiens
HEK293 [6] = experiment: cells; format: functional, cell-based; conditions: Homo sapiens; remark: listed apart in the source
HEK293 [7] = experiment: NOD2 signaling inhibitors in MDP-stimulated cells, cell-based, uHTS, luminescence (AID 2001); format: functional; conditions: Homo sapiens
HEK293 [8] = experiment: NOD1 signaling inhibitors, primary screen, cell-based, luminescence, uHTS (AID 1578); format: functional; conditions: Homo sapiens
INS1 = experiment: beta cell apoptosis inhibitors, cytokine rescue, dose response, luminescence, retest (AID 449756); format: functional, cell-based; conditions: Rattus norvegicus;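 note: cell death triggered by IL-1 beta plus TNF-alpha plus IFN-gamma mixture; protective hits raise ATP signal compared with cytokine alone wells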
Tumor necrosis factor = Tumor necrosis factor (Homo sapiens, UniProt P01375); experiment: TNFa-triggered NF-kB activation inhibitors, SAR follow-up, cell-based, revised (AID 2337); format: functional
[9] = target: T3, Nucleotide-binding oligomerization domain-containing protein 2 (Homo sapiens, UniProt Q9HC29); experiment: PubChem AID 2334; format: functional
HEK293 [10] = experiment: cells; conditions: Homo sapiens
[11] = Shn3 3'UTR reporter inhibitors, dose response, cell-based, Clone20 osteoblasts, firefly luciferase, cherry-picked (AID 624132); format: functional;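 note: firefly luciferase luminescence from reporter carrying the Shn3 3'UTR in osteoblasts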
[12] = target: T4, Nucleotide-binding oligomerization domain-containing protein 1 (Homo sapiens, UniProt Q9Y239); experiment: NOD1 signaling inhibitors, SAR follow-up, revised (AID 2333); format: functional
T4 sequence (Q9Y239 whole entry): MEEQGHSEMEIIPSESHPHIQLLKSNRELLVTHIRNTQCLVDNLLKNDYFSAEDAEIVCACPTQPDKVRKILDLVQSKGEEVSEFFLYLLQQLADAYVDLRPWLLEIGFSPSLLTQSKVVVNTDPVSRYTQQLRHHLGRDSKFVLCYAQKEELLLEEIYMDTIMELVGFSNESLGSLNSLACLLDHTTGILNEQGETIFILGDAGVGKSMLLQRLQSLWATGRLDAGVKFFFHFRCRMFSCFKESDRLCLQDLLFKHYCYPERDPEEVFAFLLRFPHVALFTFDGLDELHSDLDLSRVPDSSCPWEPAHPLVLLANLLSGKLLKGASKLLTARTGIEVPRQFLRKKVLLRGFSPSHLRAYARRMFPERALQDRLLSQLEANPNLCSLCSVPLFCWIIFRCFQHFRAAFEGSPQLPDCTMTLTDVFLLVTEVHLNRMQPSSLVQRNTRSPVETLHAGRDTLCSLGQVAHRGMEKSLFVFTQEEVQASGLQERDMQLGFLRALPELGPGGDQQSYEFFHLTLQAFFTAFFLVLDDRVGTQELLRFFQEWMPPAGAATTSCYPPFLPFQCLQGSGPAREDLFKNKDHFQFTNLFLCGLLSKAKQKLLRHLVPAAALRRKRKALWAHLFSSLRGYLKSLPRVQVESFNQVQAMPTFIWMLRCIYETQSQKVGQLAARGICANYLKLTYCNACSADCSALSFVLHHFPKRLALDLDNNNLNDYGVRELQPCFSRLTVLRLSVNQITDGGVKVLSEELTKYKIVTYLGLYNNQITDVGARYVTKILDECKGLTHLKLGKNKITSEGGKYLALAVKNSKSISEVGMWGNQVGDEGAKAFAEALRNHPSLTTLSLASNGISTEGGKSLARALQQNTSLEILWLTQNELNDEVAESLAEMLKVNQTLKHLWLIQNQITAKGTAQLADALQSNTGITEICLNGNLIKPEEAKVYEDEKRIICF

[13] = target: T3, Nucleotide-binding oligomerization domain-containing protein 2; experiment: NOD2 signaling inhibitors, cell-based, luminescence, uHTS, HEK293 (AID 1566); format: functional
HEK293 [14] = experiment: cells; format: functional, cell-based; conditions: Homo sapiens; remark: listed apart in the source
CAAX prenyl protease 2 = target: T5, CAAX prenyl protease 2 (Homo sapiens, UniProt Q9Y256); experiment: human Rce1 protease inhibitors, dose response, biochemical, yeast membranes, quenched-peptide fluorescence, cherry-pick (AID 588849)
T5 sequence (Q9Y256 whole entry): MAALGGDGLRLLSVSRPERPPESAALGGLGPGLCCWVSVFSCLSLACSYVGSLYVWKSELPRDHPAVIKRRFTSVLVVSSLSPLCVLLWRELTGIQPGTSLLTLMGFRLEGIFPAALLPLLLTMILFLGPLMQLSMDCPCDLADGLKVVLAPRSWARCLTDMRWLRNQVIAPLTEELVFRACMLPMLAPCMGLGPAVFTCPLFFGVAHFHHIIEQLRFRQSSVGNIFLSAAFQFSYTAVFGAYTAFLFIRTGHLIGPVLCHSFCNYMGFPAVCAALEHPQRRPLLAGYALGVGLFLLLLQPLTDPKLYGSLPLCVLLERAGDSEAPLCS

T3 sequence (Q9HC29 whole entry, the tested form may be a part): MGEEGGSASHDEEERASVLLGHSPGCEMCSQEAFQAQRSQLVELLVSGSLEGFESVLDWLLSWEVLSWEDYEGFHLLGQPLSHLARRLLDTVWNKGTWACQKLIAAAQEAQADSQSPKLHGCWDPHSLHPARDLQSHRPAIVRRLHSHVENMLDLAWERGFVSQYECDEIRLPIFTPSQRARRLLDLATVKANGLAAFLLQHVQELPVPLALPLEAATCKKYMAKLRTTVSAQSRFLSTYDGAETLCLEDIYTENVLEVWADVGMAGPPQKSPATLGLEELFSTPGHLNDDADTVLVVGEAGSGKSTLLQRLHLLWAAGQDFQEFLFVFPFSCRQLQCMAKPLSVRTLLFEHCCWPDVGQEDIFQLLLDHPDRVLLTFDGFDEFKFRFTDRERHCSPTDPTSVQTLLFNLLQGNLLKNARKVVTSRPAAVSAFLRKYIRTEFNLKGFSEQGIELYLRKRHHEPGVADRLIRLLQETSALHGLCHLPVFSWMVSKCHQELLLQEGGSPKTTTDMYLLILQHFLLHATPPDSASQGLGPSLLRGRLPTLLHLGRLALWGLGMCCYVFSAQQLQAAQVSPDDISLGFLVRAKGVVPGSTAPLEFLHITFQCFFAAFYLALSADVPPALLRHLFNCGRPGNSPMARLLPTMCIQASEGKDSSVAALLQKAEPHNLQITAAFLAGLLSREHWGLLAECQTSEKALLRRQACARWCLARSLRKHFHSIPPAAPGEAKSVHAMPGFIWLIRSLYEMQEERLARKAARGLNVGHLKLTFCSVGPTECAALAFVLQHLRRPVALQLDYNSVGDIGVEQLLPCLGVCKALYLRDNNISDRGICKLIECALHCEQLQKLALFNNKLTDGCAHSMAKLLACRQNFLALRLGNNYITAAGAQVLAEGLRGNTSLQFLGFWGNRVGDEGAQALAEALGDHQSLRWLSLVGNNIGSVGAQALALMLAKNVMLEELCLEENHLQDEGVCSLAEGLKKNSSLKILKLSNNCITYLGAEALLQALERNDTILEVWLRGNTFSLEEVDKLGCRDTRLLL
Chain of Tumor necrosis factor (P01375 whole entry, the tested form may be a part): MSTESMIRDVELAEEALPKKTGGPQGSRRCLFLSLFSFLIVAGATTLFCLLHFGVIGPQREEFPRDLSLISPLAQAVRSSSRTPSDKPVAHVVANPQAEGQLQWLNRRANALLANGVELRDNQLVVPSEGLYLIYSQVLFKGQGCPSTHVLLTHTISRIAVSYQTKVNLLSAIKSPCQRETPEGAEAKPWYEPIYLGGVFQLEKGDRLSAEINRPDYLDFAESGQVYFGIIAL

Q: For `COc1ccc(/C=C/c2ccc3c(Br)ccc(O)c3n2)cc1`, which AC50 (HeLa) is on record?
A: The AC50 was 35.9 µM (active).

Q: And the EC50 [1]?
A: The EC50 was > 300 µM (not active).

Q: And the EC50 (Streptococcus)?
A: Its EC50 is 1.66 µM (active).

Q: What about the EC50 [2] of the same molecule?
A: The EC50 was 117 µM (active).

Q: And the EC50 [3]?
A: The EC50 was 0.923 µM (active).

Q: For `CCOC(=O)c1c(C)[nH]c(C)c1C(=O)CSc1nc2ccccc2c(=O)n1-c1ccc(CC)cc1`, which AC50 [4] is on record?
A: The AC50 was 6.48 µM (active).

Q: And the IC50 (HEK293 [5])?
A: Its IC50 is > 20 µM (inactive).

Q: What about the IC50 (HEK293 [6]) of the same molecule?
A: The IC50 was 13.4 µM (active).

Q: And the IC50 (HEK293 [7])?
A: Its IC50 is 7.12 µM (active).

Q: What about the EC50 (HEK293 [8]) of the same molecule?
A: The EC50 was 6.9 µM (active).

Q: What about the AC50 (INS1) of the same molecule?
A: Its AC50 is 5.33 µM (active).

Q: And the IC50 (Tumor necrosis factor)?
A: The IC50 was 11.1 µM (active).

Q: What about the IC50 [9] of the same molecule?
A: Its IC50 is 12 µM (active).

Q: And the IC50 (HEK293 [10])?
A: Its IC50 is > 20 µM (inactive).

Q: What about the AC50 [11] of the same molecule?
A: Its AC50 is 5.36 µM (active).

Q: And the IC50 [12]?
A: The IC50 was 15.2 µM (active).

Q: What about the EC50 [13] of the same molecule?
A: The EC50 was 5.86 µM (active).

Q: And the IC50 (HEK293 [14])?
A: Its IC50 is > 20 µM (inactive).

Q: With `CCn1nnnc1SCC(=O)Nc1nc(C)c(C)s1` as the molecule, how does the AC50 (CAAX prenyl protease 2) read?
A: The AC50 was 9.77 µM (active).
